Source: US4785090A, “Cephalosporin derivatives” (Meiji Seika Kaisha, Ltd., priority 1984, dated 1988)
In brackets after ≈: the same amount, converted by molar mass. Structures can show the parent of a compound that is named as a salt.

How the values were obtained:
[1] = system: Staphylococcus aureus 209PJC1; assay: Minimum Growth Inhibitory Concentration (MIC), Staphylococcus aureus 209PJC1; assay type: cell-based; settings: Table 1, bacterium 1: Staphylococcus aureus 209PJC1; read-out: Minimum Growth Inhibitory Concentration (MIC)
From the text: (§1) Minimum Growth Inhibitory Concentration (MIC) mcg/ml
1. Staphylococcus aureus 209PJC1
as §1
2. Staphylococcus aureus 209 PJC1

Bacillus subtilis = assay: Minimum Growth Inhibitory Concentration (MIC), Bacillus subtilis; assay type: cell-based; settings: Table 1, bacterium 2: Bacillus subtilis
From the text: as §1

Escherichia coli RGN 823 = assay: Minimum Growth Inhibitory Concentration (MIC), Escherichia coli RGN 823; assay type: cell-based; settings: RGN823; Table 1, bacterium 3: Escherichia coli RGN 823
From the text: as §1
3. Escherichia coli RGN 823

[2] = system: Klebsiella pneumoniae GN 69; assay: Minimum Growth Inhibitory Concentration (MIC), Klebsiella pneumoniae GN 69; assay type: cell-based; settings: GN69; Table 1, bacterium 4: Klebsiella pneumoniae GN 69
From the text: as §1
4. Klebsiella pneumoniae GN 69

Proteus vulgaris OX19 = assay: Minimum Growth Inhibitory Concentration (MIC), Proteus vulgaris OX19; assay type: cell-based; settings: Table 1, bacterium 5: Proteus vulgaris OX19
From the text: as §1
5. Proteus vulgaris OX19

[3] = system: Enterobacter cloacae G0006; assay: Minimum Growth Inhibitory Concentration (MIC), Enterobacter cloacae G0006; assay type: cell-based; settings: Table 1, bacterium 6: Enterobacter cloacae G0006
From the text: as §1
6. Enterobacter cloacae G0006

Serratia marcescens N 01 = assay: Minimum Growth Inhibitory Concentration (MIC), Serratia marcescens N 01; assay type: cell-based; settings: N01; Table 1, bacterium 7: Serratia marcescens N 01
From the text: as §1
7. Serratia marcescens N 01

[4] = system: Pseudomonas aeruginosa MB 3833; assay: Minimum Growth Inhibitory Concentration (MIC), Pseudomonas aeruginosa MB 3833; assay type: cell-based; settings: MB3833; Table 1, bacterium 8: Pseudomonas aeruginosa MB 3833
From the text: as §1
8. Pseudomonas aeruginosa MB 3833

[5] = system: Streptococcus faecalis ATCC 8043; assay: Minimum Growth Inhibitory Concentration (MIC), Streptococcus faecalis ATCC 8043; assay type: cell-based; settings: Enterococcus faecalis, ATCC8043; Table 1, bacterium 9: Streptococcus faecalis ATCC 8043
From the text: as §1
9. Streptococcus faecalis ATCC 8043

Proteus vulgaris GN 76 = assay: Minimum Growth Inhibitory Concentration (MIC), Proteus vulgaris GN 76; assay type: cell-based; settings: GN76; Table 1, bacterium 10: Proteus vulgaris GN 76; read-out: Minimum Growth Inhibitory Concentration (MIC)
From the text: as §1
10. Proteus vulgaris GN 76
as §1
8. Proteus vulgaris GN 76

[6] = system: Enterobacter cloacae G0005; assay: Minimum Growth Inhibitory Concentration (MIC), Enterobacter cloacae G0005; assay type: cell-based; settings: Table 1, bacterium 11: Enterobacter cloacae G0005
From the text: as §1
11. Enterobacter cloacae G0005

[7] = Serum concentration in mice after subcutaneous administration; assay type: in vivo; settings: mouse, sc, subcutaneous 25 mg/kg; for concentration at 0.5 h: 1/2 hr; for concentration at 0.25 h: 1/4 hr; for concentration at 5 min: 1/12 hr
Method: The experiment was conducted by using 3 mice (average body weight 20 g) in each group, subcutaneously administering 25 mg/kg of the sample, taking blood samples at predetermined intervals, separating the serum and measuring the sample concentration by an antibacterial activity test using Escherichia coli as a testing bactera.

[8] = system: Cephalosporinase-producing Escherichia coli GN206; assay: Treatment of experimental infection in mice (Escherichia coli GN206); assay type: in vivo; settings: intraperitoneal infection 1.25×10^6 CFU/mouse, subcutaneous one hour after infection, survival at one week
[9] = Toxicity test in mice (intravenous); assay type: in vivo; settings: mouse, in vivo, iv
From the text: Further, the compound of Example 28 was intravenously adminstered to 3 mice at a dose of 1 g/kg and also the compounds of Examples 34 and 51 were similarly administered at a dose of 3 g/kg respectively, and the number of survivor was examined after a week.

Row | Structure (SMILES) | MIC [1] | MIC (Bacillus subtilis) | MIC (Escherichia coli RGN 823) | MIC [2] | MIC (Proteus vulgaris OX19) | MIC [3] | MIC (Serratia marcescens N 01) | MIC [4] | MIC [5] | MIC (Proteus vulgaris GN 76) | MIC [6] | concentration at 0.5 h [7] | concentration at 0.25 h [7] | concentration at 5 min [7] | concentration at 1 h [7] | ED50 [8] | LD50 at 168 h [9]
1 | C[n+]1c(SCC2=C(C(=O)[O-])N3C(=O)[C@@H](NC(=O)/C(=N\OC(C)(C)C(=O)O)c4csc(N)n4)[C@H]3SC2)ccc2c1CCCC2 [Example 18, (6R,7R)-7-[(Z)-2-(2-Aminothiazol-4-yl)-2-(1-methyl-1-carboxyethoxyimino)acetamido]-3-[(5,6-cyclohexeno-1-methylpyridinium-2-yl)thiomethyl]-ceph-3-em-4-carboxylate] | 1.56 µg/mL (≈ 2.41 µM) | 12.5 µg/mL (≈ 19.3 µM) | 0.2 µg/mL (≈ 0.309 µM) | 0.39 µg/mL (≈ 0.603 µM) | 0.1 µg/mL (≈ 0.155 µM) | 6.25 µg/mL (≈ 9.66 µM) | 0.05 µg/mL (≈ 0.0773 µM) | 6.25 µg/mL (≈ 9.66 µM) |  |  |  |  |  |  |  |  | 
2 | CO/N=C(\C(=O)N[C@@H]1C(=O)N2C(C(=O)[O-])=C(CSc3cc[n+](CC(=O)O)c4c3CCC4)CS[C@H]12)c1csc(N)n1 [Example 34, (6R,7R)-7-[(Z)-2-(2-Aminothiazol-4-yl)-2-methoxyiminoacetamido]-3-[(2,3-cyclopenteno-1-carboxymethylpyridinium-4-yl)thiomethyl]-ceph-3-em-4-carboxylicacid sodium salt] | 0.78 µg/mL | 1.56 µg/mL | ≤ 0.025 µg/mL | ≤ 0.025 µg/mL |  |  | 0.05 µg/mL | 6.25 µg/mL | 6.25 µg/mL | 0.1 µg/mL | 0.2 µg/mL | 21000 ng/mL | 35000 ng/mL | 25000 ng/mL | 6400 ng/mL | 0.3 mg/mouse | ≥ 3000 mg/kg
3 | C[n+]1ccc(SCC2=C(C(=O)[O-])N3C(=O)[C@@H](NC(=O)/C(=N\OCC(=O)O)c4csc(N)n4)[C@H]3SC2)c2c1CCC2 [Example 51, (6R,7R)-7-[(Z)-2-(2-Aminothiazol-4-yl)-2-(carboxymethoxyimino)acetamido]-3-[(2,3-cyclopenteno-1-methylpyridinium-4-yl)thiomethyl]-ceph-3-em-4-carboxylic acid sodium salt] | 1.56 µg/mL | 0.05 µg/mL | 0.1 µg/mL | ≤ 0.025 µg/mL |  |  | ≤ 0.025 µg/mL | 6.25 µg/mL | 1.56 µg/mL | ≤ 0.025 µg/mL | 0.05 µg/mL | 24000 ng/mL | 34000 ng/mL | 27000 ng/mL | 5400 ng/mL | 0.37 mg/mouse | ≥ 3000 mg/kg

Now from value to compound, other results behind:

Row | MIC [1] | MIC (Bacillus subtilis) | MIC (Escherichia coli RGN 823) | MIC [2] | MIC (Proteus vulgaris OX19) | MIC [3] | MIC (Serratia marcescens N 01) | MIC [4] | Structure (SMILES) | MIC [5] | MIC (Proteus vulgaris GN 76) | MIC [6] | concentration at 0.5 h [7] | concentration at 0.25 h [7] | concentration at 5 min [7] | concentration at 1 h [7] | ED50 [8] | LD50 at 168 h [9]
4 | 0.1 µg/mL (≈ 0.166 µM) | 0.2 µg/mL (≈ 0.331 µM) | 0.1 µg/mL (≈ 0.166 µM) | 0.05 µg/mL (≈ 0.0828 µM) |  |  | 0.1 µg/mL (≈ 0.166 µM) | 12.5 µg/mL (≈ 20.7 µM) | CO/N=C(\C(=O)N[C@@H]1C(=O)N2C(C(=O)[O-])=C(CSc3cc[n+](CC(N)=O)c4c3CCC4)CS[C@H]12)c1csc(N)n1 [Example 35, (6R,7R)-7-[(Z)-2-(2-Aminothiazol-4-yl)-2-methoxyiminoacetamido]-3-[(2,3-cyclopenteno-1-carbamoylmethylpyridinium-4-yl)thiomethyl]-ceph-3-em-4-carboxylate] | 0.2 µg/mL (≈ 0.331 µM) | 0.39 µg/mL (≈ 0.646 µM) | 0.2 µg/mL (≈ 0.331 µM) |  |  |  |  |  | 
5 | 0.78 µg/mL | 1.56 µg/mL | ≤ 0.025 µg/mL | ≤ 0.025 µg/mL |  |  | ≤ 0.025 µg/mL | 12.5 µg/mL | CO/N=C(\C(=O)N[C@@H]1C(=O)N2C(C(=O)[O-])=C(CSc3cc[n+](CCS(=O)(=O)O)c4c3CCC4)CS[C@H]12)c1csc(N)n1 [Example 39, (6R,7R)-7-[(Z)-2-(2-Aminothiazol-4-yl)-2-methoxyiminoacetamido]-3-[[2,3-cyclopenteno-1-(2-sulfoethyl)pyridinium-4-yl]thiomethyl]-ceph-3-em-4-carboxylic acid sodium salt] | 6.25 µg/mL | 0.2 µg/mL | 0.1 µg/mL |  |  |  |  |  | 
